One assay concerns BJ. In words: Cytotoxicity against human BJ cells after 72 hrs by […] CellTiterGlo reagent assay. It is filed as cell-based.
Another assay relates to Raji. In words: Cytotoxicity against human Raji cells after 72 hrs by […] CellTiterGlo reagent assay. It is filed as cell-based.
For a further assay, the system named is HepG2. The assay is described as follows: Cytotoxicity against human HepG2 cells after 72 hrs by […] CellTiterGlo reagent assay. It counts as cell-based. Particulars: HepG2, 72 h.
In assay [1] the test system is Plasmodium falciparum. In words: Antimalarial activity against chloroquine-sensitive Plasmodium falciparum 3D7 incubated for 72 hrs by DNA staining based MAR3D7 growth inhibition assay. It counts as functional, organism-based. The settings on record: 3D7, 72 h.
In assay [2] the test system is Plasmodium falciparum. In words: Antimalarial activity against […] incubated for 72 hrs by DNA staining based MARK1 growth inhibition assay. It is filed as functional, organism-based.
The test system of another assay is HEK293. In words: Cytotoxicity against human HEK293 cells after 72 hrs by […] CellTiterGlo reagent assay. The settings on record: HEK293, 72 h. It is filed as cell-based.

SMILES strings stand for the structures.

Turning to `CCOC(=O)CCCCCOc1cccc(CN(C(=O)c2ccc(-c3cn(S(=O)(=O)c4ccccc4)c4ccccc34)cc2)C(C)C)c1`, the concentration for a half-maximal effect (EC50) was more than 26 µM in the assay on BJ; more than 26 µM with Raji; more than 26 µM with HepG2; more than 15 µM in the assay on Plasmodium falciparum [1]; more than 15 µM in the assay with Plasmodium falciparum [2]; more than 26 µM in the assay on HEK293.

As to `CCCN(Cc1ccc(OCCCCCC(=O)OCC)cc1)C(=O)c1ccc(Br)cc1`, the concentration giving a half-maximal response (EC50) is more than 26 µM with BJ; more than 26 µM in the assay on Raji; more than 26 µM in the assay on HepG2; more than 15 µM in the assay on Plasmodium falciparum [1]; more than 15 µM in the assay with Plasmodium falciparum [2]; more than 26 µM with HEK293.

Take `CC(C)N(Cc1cccc(OCCCCCC(=O)O)c1)C(=O)c1ccc(-c2cccc3ccccc23)cc1`: the half-maximal effective concentration (EC50) in the assay on Raji was more than 26 µM; in the assay with HepG2, more than 26 µM; in the assay with Plasmodium falciparum [1], more than 15 µM; in the assay on Plasmodium falciparum [2], more than 15 µM; with HEK293, more than 26 µM.

`CCOC(=O)CCCCCOc1cccc(CN(C(=O)c2ccc(-c3ccc4ccccc4c3)cc2)C(C)C)c1`: the concentration for a half-maximal effect (EC50) with BJ is more than 26 µM; with Raji it was more than 26 µM; with HepG2 it was more than 26 µM; in the assay on Plasmodium falciparum [1], more than 15 µM; in the assay on Plasmodium falciparum [2] it was more than 15 µM; in the assay with HEK293, more than 26 µM.

As for `CCOC(=O)CCCCCOc1cccc(CN(C(=O)c2ccc(-c3cccc(OC(F)(F)F)c3)cc2)C(C)C)c1`, the EC50 in the assay on BJ was more than 26 µM; in the assay with Raji, more than 26 µM; in the assay with HepG2, more than 26 µM; in the assay with Plasmodium falciparum [1], more than 15 µM; with Plasmodium falciparum [2], more than 15 µM; in the assay on HEK293, more than 26 µM.

With `CCCN(Cc1ccc(OCCCCCC(=O)O)cc1)C(=O)c1ccc(-c2ccc3c(c2)OCO3)cc1`, the half-maximal effective concentration (EC50) with BJ is more than 26 µM; with Raji, more than 26 µM; in the assay with HepG2, more than 26 µM; with Plasmodium falciparum [1], more than 15 µM; in the assay on Plasmodium falciparum [2], 0.928 µM; in the assay on HEK293, more than 26 µM.

For the molecule `[N-]=[N+]=NC[C@H](O)c1ccc2c(c1)OCO2`, the EC50 in the assay on BJ is more than 13 µM; in the assay on Raji, more than 13 µM; in the assay on HepG2 it was more than 13 µM; with Plasmodium falciparum [1], more than 7.51 µM; with Plasmodium falciparum [2] it was more than 7.51 µM; in the assay on HEK293 it was more than 13 µM.

In the case of `CCOC(=O)CCCCCOc1cccc(CN(C(=O)c2ccc(-c3cc(OC)cc(OC)c3)cc2)C(C)C)c1`, the EC50 in the assay with BJ is more than 26 µM; in the assay on Raji it was more than 26 µM; with HepG2, more than 26 µM; in the assay on Plasmodium falciparum [1] it was more than 15 µM; with Plasmodium falciparum [2] it was more than 15 µM; in the assay on HEK293 it was more than 26 µM.

For `CC(C)N(Cc1cccc(OCCCCCC(=O)O)c1)C(=O)c1ccc(-c2cccc(Br)c2)cc1`, the EC50 with BJ was more than 26 µM; with Raji, more than 26 µM; with HepG2, more than 26 µM; in the assay on Plasmodium falciparum [1], more than 15 µM; in the assay with Plasmodium falciparum [2], more than 15 µM; in the assay with HEK293 it was more than 26 µM.

In the case of `CCOC(=O)CCCCCOc1cccc(CN(C(=O)c2ccc(-c3cc(C(F)(F)F)cc(C(F)(F)F)c3)cc2)C(C)C)c1`, the EC50 with BJ was more than 26 µM; in the assay with Raji it was more than 26 µM; in the assay with HepG2, more than 26 µM; in the assay with Plasmodium falciparum [1], more than 15 µM; with Plasmodium falciparum [2] it was more than 15 µM; with HEK293 it was more than 26 µM.

Take `CCCN(Cc1cccc(OCCCCCC(=O)O)c1)C(=O)c1ccc(-c2ccc3c(c2)OCO3)cc1`: the EC50 is more than 26 µM in the assay on BJ; more than 26 µM in the assay with Raji; more than 26 µM in the assay on HepG2; 0.174 µM in the assay on Plasmodium falciparum [1]; 0.995 µM in the assay with Plasmodium falciparum [2]; more than 26 µM with HEK293.

On to `CCOC(=O)CCCCCOc1cccc(CN(C(=O)c2ccc(-c3cccnc3)cc2)C(C)C)c1`, for which the concentration for a half-maximal effect (EC50) with BJ was more than 26 µM; in the assay with Raji, more than 26 µM; in the assay with HepG2 it was more than 26 µM; in the assay on Plasmodium falciparum [1], more than 15 µM; with Plasmodium falciparum [2], more than 15 µM; in the assay on HEK293, more than 26 µM.

On to `CC(C)N(Cc1cccc(OCCCCCC(=O)O)c1)C(=O)c1ccc(-c2ccsc2)cc1`, for which the EC50 with BJ was more than 26 µM; in the assay with Raji it was more than 26 µM; in the assay with HepG2 it was more than 26 µM; with Plasmodium falciparum [1], more than 15 µM; in the assay on Plasmodium falciparum [2] it was more than 15 µM; in the assay with HEK293 it was more than 26 µM.

With `CC(C)N(Cc1cccc(OCCCCCC(=O)O)c1)C(=O)c1ccc(-c2cccc(-c3ccccc3)c2)cc1`, the EC50 in the assay with BJ was more than 26 µM; in the assay with Raji, more than 26 µM; with HepG2, more than 26 µM; in the assay with Plasmodium falciparum [1], more than 15 µM; in the assay on Plasmodium falciparum [2] it was more than 15 µM; in the assay on HEK293, more than 26 µM.

Regarding `CC(C)N(Cc1cccc(OCCCCCC(=O)O)c1)C(=O)c1ccc(-c2cccc([N+](=O)[O-])c2)cc1`, the EC50 was more than 26 µM with BJ; more than 26 µM in the assay on Raji; more than 26 µM in the assay with HepG2; less than 0.0004 µM with Plasmodium falciparum [1]; more than 15 µM with Plasmodium falciparum [2]; more than 26 µM in the assay on HEK293.

For `CCOC(OCC)C(=O)NCCc1ccc(OC)c(OC)c1`, the EC50 in the assay on BJ was more than 13 µM; in the assay on Raji, more than 13 µM; in the assay on HepG2, more than 13 µM; in the assay on Plasmodium falciparum [1] it was more than 7.51 µM; in the assay on Plasmodium falciparum [2] it was more than 7.51 µM; in the assay with HEK293 it was more than 13 µM.

Turning to `CCCN(Cc1ccccc1OCCCCCC(=O)OCC)C(=O)c1ccc(-c2ccc3c(c2)OCO3)cc1`, the concentration giving a half-maximal response (EC50) was more than 26 µM with BJ; more than 26 µM with Raji; more than 26 µM in the assay on HepG2; more than 15 µM in the assay with Plasmodium falciparum [1]; more than 15 µM in the assay with Plasmodium falciparum [2]; more than 26 µM with HEK293.

With `CCCN(Cc1ccccc1OCCCCCC(=O)O)C(=O)c1ccc(-c2ccc3c(c2)OCO3)cc1`, the half-maximal effective concentration (EC50) with BJ is more than 26 µM; with Raji, more than 26 µM; in the assay on HepG2, more than 26 µM; in the assay on Plasmodium falciparum [1], more than 15 µM; with Plasmodium falciparum [2], more than 15 µM; in the assay on HEK293, more than 26 µM.

As to `CCOC(=O)CCCCCOc1cccc(CN(C(=O)c2ccc(-c3ccc(C(C)=O)s3)cc2)C(C)C)c1`, the 50% effective concentration (EC50) was more than 26 µM with BJ; more than 26 µM in the assay on Raji; more than 26 µM in the assay on HepG2; more than 15 µM with Plasmodium falciparum [1]; more than 15 µM with Plasmodium falciparum [2]; more than 26 µM in the assay with HEK293.

Consider `CC(C)N(Cc1ccc(OCCCCCC(=O)O)cc1)C(=O)c1ccc(-c2ccc3c(c2)OCO3)cc1`, for which the concentration for a half-maximal effect (EC50) in the assay with BJ is more than 26 µM; in the assay on Raji it was more than 26 µM; with HepG2, more than 26 µM; in the assay with Plasmodium falciparum [1], more than 15 µM; in the assay with Plasmodium falciparum [2] it was 1.82 µM; in the assay with HEK293 it was more than 26 µM.

For the molecule `CC(C)N(Cc1cccc(OCCCCCC(=O)O)c1)C(=O)c1ccc(-c2cccc(F)c2)cc1`, the EC50 in the assay with BJ is more than 26 µM; with Raji, more than 26 µM; in the assay with HepG2 it was more than 26 µM; in the assay with Plasmodium falciparum [1], more than 15 µM; in the assay on Plasmodium falciparum [2], more than 15 µM; with HEK293 it was more than 26 µM.

`CCOC(=O)CCCCCOc1cccc(CN(C(=O)c2ccc(-c3cccc([N+](=O)[O-])c3)cc2)C(C)C)c1`: the EC50 was more than 26 µM with Raji; more than 26 µM with HepG2; more than 15 µM in the assay on Plasmodium falciparum [1]; more than 15 µM with Plasmodium falciparum [2]; more than 26 µM with HEK293.

As to `CCOC(=O)CCCCCOc1cccc(CN(C(=O)c2ccc(-c3cccc(C(F)(F)F)c3)cc2)C(C)C)c1`, the EC50 is more than 26 µM in the assay with Raji; more than 26 µM in the assay on HepG2; more than 15 µM with Plasmodium falciparum [1]; more than 15 µM in the assay with Plasmodium falciparum [2]; more than 26 µM with HEK293.

Source of the values: ChEMBL document CHEMBL2046380, “Synthesis and structure-activity relationship of disubstituted benzamides as a novel class of antimalarial agents” (Bioorg Med Chem Lett, 2012).
